pKi: −log10 of the molar value.
Key:
[1] = molecular target: Epithelial discoidin domain-containing receptor 1 (Homo sapiens, UniProt Q08345); experiment: Binding Assays
Method: (§1) DDR1 and DDR2 binding assays were performed using Life Technologies LanthaScreen™ Europium Kinase Binding assay. The compounds were incubated with 5 nM DDR1 (Carna Biosciences) or 5 nM DDR2 (Life Technologies) for 1 h at rt in white 384-well OptiPlate (PerkinElmer), containing 20 nM or 10 nM Kinase Tracer 178 respectively and 2 nM Europium labelled anti-GST antibody (Life Technologies) in assay buffer (50 mM HEPES pH 7.5, 10 mM MgCI2, 1 mM EGTA and 0.01% BRIJ35). The ratio of fluorescence emission 665 nm/615 nm after excitation at 340 nm was obtained using the Tecan Spark 20M plate reader. IC50 values were determined in GraphPad Prism 7.0 software, using 4 parameter model: log(inhibitor) vs. response. IC50 values were converted in Ki using the Cheng-Prusoff equation (Ki=IC50/(1+[Tracer]/Kd).

[2] = molecular target: T1, Discoidin domain-containing receptor 2 (Homo sapiens, UniProt Q16832); experiment: Binding Assays
T1 sequence (Q16832 whole entry): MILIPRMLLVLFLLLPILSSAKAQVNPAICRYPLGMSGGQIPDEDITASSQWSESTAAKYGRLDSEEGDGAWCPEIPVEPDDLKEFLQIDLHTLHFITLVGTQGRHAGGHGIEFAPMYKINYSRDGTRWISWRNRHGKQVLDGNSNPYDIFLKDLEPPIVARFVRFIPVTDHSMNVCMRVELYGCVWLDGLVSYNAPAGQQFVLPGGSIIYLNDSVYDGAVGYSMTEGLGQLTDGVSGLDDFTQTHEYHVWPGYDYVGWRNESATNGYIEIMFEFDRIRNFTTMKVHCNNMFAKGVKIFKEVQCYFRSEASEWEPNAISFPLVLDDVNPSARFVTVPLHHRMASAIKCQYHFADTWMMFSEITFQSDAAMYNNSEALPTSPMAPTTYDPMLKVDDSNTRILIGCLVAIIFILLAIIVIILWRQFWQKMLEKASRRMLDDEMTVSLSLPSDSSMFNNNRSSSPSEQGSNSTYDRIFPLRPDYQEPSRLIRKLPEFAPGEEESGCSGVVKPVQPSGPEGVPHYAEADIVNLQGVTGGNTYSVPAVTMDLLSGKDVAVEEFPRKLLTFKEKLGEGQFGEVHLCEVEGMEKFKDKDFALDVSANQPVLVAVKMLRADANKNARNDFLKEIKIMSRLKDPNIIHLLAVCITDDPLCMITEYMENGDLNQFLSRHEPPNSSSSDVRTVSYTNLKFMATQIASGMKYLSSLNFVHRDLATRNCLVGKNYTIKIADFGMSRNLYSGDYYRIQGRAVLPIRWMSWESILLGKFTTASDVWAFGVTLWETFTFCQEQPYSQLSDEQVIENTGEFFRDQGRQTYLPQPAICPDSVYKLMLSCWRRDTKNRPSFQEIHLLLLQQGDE
Method: as §1

Epithelial discoidin domain-containing receptor 1, sequence (Q08345 whole entry, the tested form may be a part): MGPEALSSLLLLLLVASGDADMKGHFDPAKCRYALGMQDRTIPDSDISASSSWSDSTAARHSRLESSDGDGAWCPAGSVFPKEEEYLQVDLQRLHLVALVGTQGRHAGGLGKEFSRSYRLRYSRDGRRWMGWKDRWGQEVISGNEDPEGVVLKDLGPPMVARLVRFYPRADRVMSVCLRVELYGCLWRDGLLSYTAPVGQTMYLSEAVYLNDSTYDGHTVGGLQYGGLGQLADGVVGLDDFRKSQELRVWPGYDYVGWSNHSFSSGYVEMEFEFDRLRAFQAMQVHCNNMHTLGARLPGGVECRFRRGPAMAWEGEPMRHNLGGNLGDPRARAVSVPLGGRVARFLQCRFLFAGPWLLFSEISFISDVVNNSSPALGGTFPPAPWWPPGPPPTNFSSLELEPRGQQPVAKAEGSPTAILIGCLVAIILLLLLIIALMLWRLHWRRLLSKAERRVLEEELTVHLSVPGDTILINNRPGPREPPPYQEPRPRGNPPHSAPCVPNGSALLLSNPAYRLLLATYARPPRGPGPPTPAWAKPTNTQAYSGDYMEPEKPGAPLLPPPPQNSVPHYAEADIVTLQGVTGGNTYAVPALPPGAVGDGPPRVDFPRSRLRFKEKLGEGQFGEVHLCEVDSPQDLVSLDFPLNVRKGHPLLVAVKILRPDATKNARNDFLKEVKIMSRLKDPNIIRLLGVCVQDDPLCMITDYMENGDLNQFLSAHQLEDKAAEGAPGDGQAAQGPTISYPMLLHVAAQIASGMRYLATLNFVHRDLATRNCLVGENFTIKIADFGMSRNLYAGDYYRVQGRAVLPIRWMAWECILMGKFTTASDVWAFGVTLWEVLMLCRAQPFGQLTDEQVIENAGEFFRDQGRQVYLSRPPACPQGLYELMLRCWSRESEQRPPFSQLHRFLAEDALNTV

Row | pKi [1] | pKi [2] | SMILES
1 | > 8.30 | – | Cc1ccc(C(=O)Nc2cncc(C(F)(F)F)c2)cc1OC1CN(c2cncc(C(N)=O)c2)C1 [US20260028328, Example 139]
2 | 7.60 to 8.30 | 7.00 to 7.60 | Cc1ccc(C(=O)Nc2cncc(C(F)(F)F)c2)cc1SC1CN(c2cncnc2)C1 [US20260028328, Example 177]
